Measurements as given in paper PMC13629022 (ACS Omega, 2026).
Entries after “also recorded” stand apart in the source; their conditions may differ. Where two headings read alike, the source gives them in different places.

Key:
[1] = tested on: nitric oxide production by stimulated J774.A1 macrophages; assay: Nitric oxide production by LPS + IFN-γ stimulated J774.A1 macrophages (nitrite, Griess method); format: cell-based, murine; conditions: for IC50 / Emax: Mus musculus; for Emax: read-out: efficacy: maximum effect (% of the maximum possible effect), inhibition of NO production, J774.A1 macrophages stimulated with LPS + IFN-γ, 24 h
Experimental: (§1) For cytokine and nitric oxide evaluations, J774.A1 cells were seeded in 96-well tissue culture plates at 2 × 10^5 cells per well in DMEM supplemented with 10% FBS and 50 μg/mL gentamicin and incubated for 2 h at 37 °C in a 5% CO2 atmosphere, as previously described. Cells were then stimulated with LPS (500 ng/mL) and IFN-γ (5 ng/mL) in the presence of either the test compounds at different concentrations (3.9–250 μM), the medium alone, or dexamethasone (40 μM, reference drug) and further incubated at 37 °C. Cell-free supernatants were collected 24 h after incubation for IL-1β, IL-6, and nitrite quantification. Cytokine concentrations in the supernatants of J774.A1 cultures were determined by enzyme-linked immunosorbent assay (ELISA) using the DuoSet kit (R&D Systems, Minneapolis, MN, USA), according to the manufacturer’s instructions. Results were expressed as picograms per milliliter (pg/mL) of IL-1β or IL-6. Quantification of nitrite as an indicator of nitric oxide production was performed using the Griess method. Three independent experiments were performed. −

[2] = tested on: murine macrophage-like J774.A1 cells; assay: Cytotoxicity to J774.A1 macrophages (Alamar Blue); conditions: concentrations up to 500 μM (compounds 7 and 13 up to 250 μM)
Experimental: Cells were incubated for 72 h at 37 °C in a 5% CO2 atmosphere, as previously described. They were then stimulated with LPS (500 ng/mL, Sigma Chemical Co., St. Louis, MO, USA) and IFN-γ (5 ng/mL, Sigma). Compounds were added to the medium at eight concentrations ranging from 1.9 to 500 μM, in triplicate, and incubated for 24 h. Subsequently, 20 μL per well of Alamar Blue (Invitrogen, Carlsbad, CA, USA) was added to the plates for 6 h. Compounds 7, 11, and 13 were evaluated only up to a maximum concentration of 250 μM due to the limited amount of purified material available for testing. Colorimetric readings were performed at 570 and 600 nm. Triton X-100 (5%) was used as the positive control.

[3] = tested on: IL-1β production by stimulated J774.A1 macrophages; assay: IL-1β production by LPS + IFN-γ stimulated J774.A1 macrophages (ELISA); format: cell-based, murine; conditions: compounds at 62.5 μM, Dexa 40 μM, 24 h, vs stimulated untreated cells, p < 0.05
Experimental: as §1, with “Cells” for “For cytokine and nitric oxide evaluations, J774.A1 cells were seeded in 96-well tissue culture plates at 2 × 10^5 cells per well in DMEM supplemented with 10% FBS and 50 μg/mL gentamicin and incubated for 2 h at 37 °C in a 5% CO2 atmosphere, as previously described. Cells”

[4] = tested on: IL-6 production by stimulated J774.A1 macrophages; assay: IL-6 production by LPS + IFN-γ stimulated J774.A1 macrophages (ELISA); format: cell-based, murine; conditions: compounds at 62.5 μM, Dexa 40 μM, 24 h, vs stimulated untreated cells, p < 0.05
Experimental: as §1, with “Cells” for “For cytokine and nitric oxide evaluations, J774.A1 cells were seeded in 96-well tissue culture plates at 2 × 10^5 cells per well in DMEM supplemented with 10% FBS and 50 μg/mL gentamicin and incubated for 2 h at 37 °C in a 5% CO2 atmosphere, as previously described. Cells”

[5] = J774.A1, 24 h, read-out: IC50, half maximal inhibitory concentration, NO production, J774.A1 macrophages stimulated with LPS (500 ng/mL) + IFN-γ (5 ng/mL), 24 h, nitrite by Griess
[6] = J774.A1, read-out: IC50 (in Figure 8 panels), nitric oxide production, Figure 8, no unit in the boxes, μM only in axis labels, LPS + IFN-γ stimulated J774.A1

COC1CC(OC2CCC3(C)C(CCC4C3CC(OC(=O)C=Cc3ccccc3)C3(C)C(C(C)O)CCC43O)C2)OC(C)C1OC1CC(OC)C(OC2OC(C)C(O)C(OC)C2O)C(C)O1 [Compound 10, 12-O-cinnamoyl-(20S)-5,6,8,17-tetrahydrosarcostin-3-O-β-D-6-deoxy-3-O-methyl-allopyranosyl-(1 → 4)-β-D-oleandropyranosyl-(1 → 4)-β-D-cymaropyranoside]
IC50 [1, 5]: 17.5 µM
Emax ([1]; J774.A1, 24 h): 66.1%
IC50 [1, 6]: 17.5 µM
cytotoxic effects in J774 macrophages (in words) [2]: most cytotoxic
production of IL-1β (in words) [3]: significantly reducing; also recorded: significant reduction; also recorded: comparable to those of Dexa
production of IL-6 (in words) [4]: significantly reducing; also recorded: comparable to those of Dexa

COC1CC(OC2CCC3(C)C(CCC4(O)C3CC(OC(C)=O)C3(C)C(C(C)O)CCC43O)C2)OC(C)C1OC1CC(OC)C(OC2OC(C)C(O)C(OC)C2O)C(C)O1 [Compound 16, 12-O-acetyl-(20S)-5,6,17-trihydrosarcostin-3-O-β-D-6-deoxy-3-O-methyl-allopyranosyl-(1 → 4)-β-D-oleandropyranosyl-(1 → 4)-β-D-cymaropyranoside]
IC50 [1, 5]: 40 to 70 µM
Emax ([1]; J774.A1, 24 h): < 50%
cytotoxic effects in J774 macrophages (in words) [2]: only mild cytotoxicity at the highest concentrations
production of IL-1β (in words) [3]: significant reduction
production of IL-6 (in words) [4]: reduced IL-1β production but not IL-6

COC1CC(OC2C(C)OC(OC3CCC4(C)C(CCC5(O)C4CC(OC(=O)C=Cc4ccccc4)C4(C)C(O)(C(C)OC(=O)c6cccnc6)CCC54O)C3)CC2OC(C)=O)OC(C)C1OC1OC(C)C(O)C(OC)C1O [Compound 3, 12-O-cinnamoyl-20-O-nicotinoyl-(20R)-5,6-dihydrosarcostin-3-O-β-D-6-deoxy-3-O-methyl-allopyranosyl-(1 → 4)-β-D-oleandropyranosyl-(1 → 4)-β-D-3′-O-acetyl-cymaropyranoside]
efficacy: maximum effect (% of the maximum possible effect), inhibition of NO production ([1]; J774.A1 macrophages stimulated with LPS + IFN-γ, 24 h): 68.0%
IC50 [1, 5]: 29.1 µM
Emax ([1]; J774.A1, 24 h): 71.8%
IC50 [1, 6]: 29.1 µM
cytotoxic effects in J774 macrophages (in words) [2]: did not induce cytotoxic effects
production of IL-1β (in words) [3]: significant reduction; also recorded: comparable to those of Dexa
production of IL-6 (in words) [4]: comparable to those of Dexa

COC1CC(OC2CCC3(C)C(CCC4(O)C3CC(OC(=O)C=Cc3ccccc3)C3(C)C(O)(C(C)OC(=O)c5cccnc5)CCC43O)C2)OC(C)C1OC1CC(OC)C(OC2OC(C)C(O)C(OC)C2O)C(C)O1 [Compound 2, 12-O-cinnamoyl-20-O-nicotinoyl-(20R)-5,6-dihydrosarcostin-3-O-β-D-6-deoxy-3-O-methyl-allopyranosyl-(1 → 4)-β-D-oleandropyranosyl-(1 → 4)-β-D-cymaropyranoside]
IC50 [1, 5]: 32.1 µM
Emax ([1]; J774.A1, 24 h): > 70%
cytotoxic effects in J774 macrophages (in words) [2]: did not induce cytotoxic effects
production of IL-1β (in words) [3]: significant reduction; also recorded: comparable to those of Dexa
production of IL-6 (in words) [4]: comparable to those of Dexa
